The source of these data is US20080182751A1, “Brassicaceae Plant Materials and Method for Their Use as Biopesticides” (Idaho Research Foundation, Inc., priority 2006, published 2008).

As usually defined, the half-life is how long it takes for the measured level to halve.

One data set has as its system weeds. The following applies: Harvey 1931; cited from earlier work.
The subject of the next data set is cotton. To be noted: solutions sprayed directly on vegetative growth (Harvey 1931); cited from earlier work.
For a further data set, the system named is wheat. To be noted: effect no longer observed at 69 days post application (Bissey and Butler 1934); cited from earlier work.
A short description of data set [1]: Stability of 4-hydroxybenzyl isothiocyanate in buffered aqueous solutions (citrate buffers). The data set is classed as physicochemical. To be noted: citrate buffer. As to the method:
Stability of 4-Hydroxybenzyl Isothiocyanate in Buffered Media. Partially purified 4-hydroxybenzyl isothiocyanate was prepared by suspending 500 grams of S. alba seed meal in 2 liters of deionized water and extracting the mixture with 500 milliliters of ethyl acetate for 24 hours. The ethyl acetate extract was separated by decanting the top organic layer after centrifugation, dried with 100 g of anhydrous sodium sulfate over night, and concentrated under vacuum at laboratory temperature. The crude 4-hydroxybenzyl isothiocyanate extract was further purified by preparative column chromatography on silica gel (500 grams). […] Content of 4-hydroxybenzyl isothiocyanate within the fractions was verified by GC-MS using instrumentation and conditions as described previously. Fractions containing 4-hydroxybenzyl isothiocyanate were combined and concentrated under vacuum at laboratory temperature producing a yellowish, viscous fluid displaying only 4-hydroxybenzyl isothiocyanate and pentane/methylene chloride solvent peaks in the GC chromatogram. No further concentration of 4-hydroxybenzyl isothiocyanate was achieved using vacuum distillation because of its instability.
The pH stability of 4-hydroxybenzyl isothiocyanate was analyzed by incubating 25 μL of partially purified extract dissolved in 25 milliliters of eight different buffers with pH values ranging from 3.0 to 6.5 (FIG. 7). 0.1 M buffers were used, and were prepared by mixing 0.2 M sodium citrate and citric acid solutions in pre-calculated ratios ranging from 4 milliliters sodium citrate and 46 milliliters citric acid to 41 milliliters sodium citrate and 9 milliliters citric acid in a total volume of […]. Actual pH values of the buffers of 3.03, 3.52, 4.02, 4.49, 5.00, 5.46, 5.91, and 6.52 were verified using an Orion model 420A pH meter (Orion Research, Boston). At specific times during the incubation a 1-milliliter sample was withdrawn from the buffered reaction solution with a syringe and injected into a Waters Integrity HPLC system (2695 separation module, 996 PDA, and TMD) equipped with a 150×2 mm i.d., 5 μm Aqua C-18 column (Phenomenex). The instrument was operated at a constant flow rate of 200 μL/min with a gradient from 5 to 35% of methanol during each 30-minute run. Half-lives for 4 hydroxybenzyl isothiocyanate were estimated from straight lines obtained by plotting the natural logarithm of the normalized concentration versus time (FIG. 7). This experiment was repeated twice with two different meal extracts acquired by the same procedures from the same seed material. Half-lives from only one of the experiments are reported since the results for both experiments were similar.

Data set [2] in a line: pH stability of 4-OH benzyl ITC in 5 buffer solutions. The data set is classed as physicochemical. As to the method: The pH stability of 4-OH benzyl ITC was assayed by incubating it in 5 buffer solutions (sodium acetate/acetic acid from pH range 3 to 5 and monosodium phosphate/phosphatic acid for pH above 5) with pHs ranging from 3.0 to 7.0. At specific times during the incubation a sample from the incubated solution was withdrawn with a syringe and injected into an HPLC-PDA (Waters Integrity system, separation module 2695, photodiode array detector 996, column Phenomenex Aqua C-18, 5 μm, 150×2 mm, with a constant flow rate of 200 μl/minute gradient from 5 to 35% of methanol in 30 minutes). The amount of 4-OH benzyl ITC was determined using calibration with benzyl ITC.

SMILES strings stand for the structures.

For the compound `N#CS` [SCN^−, ionic thiocyanate], in the data set on weeds, the “rate necessary for complete plant kill for 4 months” value is 1,366 kg SCN^−/ha and the “rate removing a large percentage of the weeds” value is given as 137 kilograms/SCN^− ha. The “rate at which cotton defoliation was possible” value in the data set with cotton is given as 8.6 kilograms SCN^−/ha. In addition, the “application rate causing inhibition of wheat germination” value in the data set on wheat was 342 kilograms SCN^−/ha.
On to `Oc1ccc(CN=C=S)cc1` [4-hydroxybenzyl isothiocyanate], for which the half-life is 5.35 h in data set [1] (pH 3.0 buffer); 5.2 h in data set [1] (pH 3.5 buffer); 4.5 h in data set [1] (pH 4.0 buffer); 3.25 h in data set [1] (pH 4.5 buffer); 1.67 h in data set [1] (pH 5.0 buffer); 0.817 h in data set [1] (pH 5.5 buffer). Besides, the half-life in data set [1] (pH 6.0 buffer) was 0.267 h; in data set [1] (pH 6.5 buffer), 0.1 h; in data set [2] (sodium acetate/acetic acid buffer, pH 3.0) it was 3.6 h. The “Half Life” value in data set [2] (pH 3) was 3.6 h; in data set [2] (pH 4) it was 2.1 h; in data set [2] (pH 5), 1.5 h; in data set [2] (pH 6) it was 0.1 h; in data set [2] (pH 7, listed as isothiocyanate precursor), 0.08 h.
